These results are taken from article PMC7179112, “Antimicrobial, Antioxidant, and Anticancer Activities of Some Novel Isoxazole Ring Containing Chalcone and Dihydropyrazole Derivatives” (Molecules, 2020).

A short description of test [1]: DPPH free radical scavenging assay. The note with it: antioxidant activity; average of three independent experiments. Here is the method: The antioxidant activity of all 30 compounds was assessed using 1,1-diphenyl-2-picrylhydrazine (DPPH) free radical scavenging assay and the results are the average of three independent experiments (Table 3). Gallic acid was employed as a positive control. […] In the disubstituted series (20–25), compound 25 with substitutions at position 3 and 5 on the phenyl ring gave the highest activity of 9 µg/mL.
The purpose of this study was to evaluate the antioxidant activity of chalcones and pyrazolines using the DPPH free radical assay. The percentage of antioxidant activity (AA%) of all the compounds was assessed by the DPPH free radical assay. The measurement of the DPPH radical scavenging activity was performed according to methodology described by Brand-Williams et al. The samples were reacted with the stable DPPH radical in an ethanol solution. A 0.1 mM solution of DPPH was prepared by dissolving DPPH in methanol. Gallic acid was taken as a reference standard and different concentrations of test samples (5–100 µg/mL) and standard (1.0, 2.5, and 5.0 µg/mL) were prepared using methanol. One milliliter of 0.1 mM DPPH solution was added to 3 mL of all concentrations of test samples and standard separately. These mixtures were kept in dark for about 30 min and the absorbance was measured at 517 nm. The capability to scavenge the DPPH radical was calculated using the formula:(1) DPPH scavanged (%)= Absorbance of control−Absorbance of sample/Absorbance of control∗100 when DPPH reacted with an antioxidant compound and was reduced, the change in color (from deep violet to light yellow) was read [Absorbance (Abs)] at 517 nm after […] of reaction using a UV-VIS spectrophotometer.

The subject of the next test is Human Normal Cells (L02). Nature of the test: MTT assay toxicity on normal cells. It is filed as cell-based. A general note: Tetrazolium dyes change colour on reduction, which living cells bring about.
The next test relates to Staphylococcus aureus. Nature of the test: Antibacterial activity, serial tube dilution method. The format is cell-based. The conditions noted are these: for MIC: Staphylococcus aureus, Gram-positive, serial tube dilution, read-out: MIC S aureus. Here is the method:
(§1) The target chalcones (17–31) and pyrazolines (32–46) were tested for their antimicrobial activities by serial tube dilution method against two types of bacterial and fungal strains (Table 1 and Table 2). The bacterial strains used for the testing, including Gram-positive Staphylococcus aureus and Gram-negative Pseudomonas aeruginosa, whereas the fungal strains employed were Aspergillus niger and Candida tropicalis.
(§2) The antibacterial and antifungal activity of the novel chalcones (17 to 31) and dihydropyrazoles (32 to 46) against the selected bacterial and fungal strains was assessed by following the procedure described in our previous paper.

Another test has as its system Pseudomonas aeruginosa. Described as above. The note with it: for MIC: Pseudomonas aeruginosa, Gram-negative, serial tube dilution, read-out: MIC P aeruginosa. The format is cell-based. Here is the method:
as §1, §2

Test [2] concerns prostate cancer cell line, DU-145. Nature of the test: MTT assay anticancer activity. The conditions noted are these: for IC50: Homo sapiens, MTT assay, mean ± SD (n = 3). The format is cell-based. Here is the method:
All the 30 compounds were evaluated for their anticancer potency against the prostate cancer cell line, DU-145, employing colorimetric tetrazolium dye (MTT) assay. […] Among the disubstituted series 20–25, substitution at position 3 and 4 (compound 24) produced the best activity but was lower than the standard. […] Similar phenomena can be seen among the dihydropyrazole series.
The in vitro anticancer activity of chalcones (17 to 31) and dihydropyrazoles (32 to 46) was evaluated by the Mosmann’s MTT assay as described previously.

The test system of another test is Aspergillus niger. Nature of the test: Antifungal activity, serial tube dilution method. The format is cell-based. Here is the method:
as §1, §2

For the next test, the system named is Candida tropicalis. The test can be described thus: Antifungal activity, serial tube dilution method. The conditions noted are these: read-out: MIC C tropicalis. The format is cell-based. Here is the method: as §1, §2
Test [3] deals with bacterial and fungal strains (S. aureus, P. aeruginosa, A. niger, C. tropicalis). The test can be described thus: Antibacterial and antifungal activity (all strains). It is filed as cell-based. The conditions noted are these: range over bacterial and fungal strains. Here is the method: as §1, §2
Test [4] deals with Aspergillus niger and Candida tropicalis. The test can be described thus: Antifungal activity (strain not named). The format is cell-based. The procedure: as §1, §2
The test system of test [5] is Staphylococcus aureus and Pseudomonas aeruginosa. The test can be described thus: Antibacterial activity (strain not named). It is filed as cell-based. Here is the method:
as §1, §2

The mark [6] stands for this setting: text/figure value, strain not named.

Values after ≈ are worked out from the molar mass of the structure shown.

What is called IC50 is the concentration needed to halve the response being measured. High values mean weaker potency, low ones greater potency. By MIC is commonly meant the lowest concentration that inhibits growth of the organism. `COc1cccc(/C=C/C(=O)c2ccno2)c1` [Compound 18]: the “DPPH assay IC50” value in test [1] was 38 ± 2 µg/mL. Moreover, the half-inhibitory concentration (IC50) with Human Normal Cells (L02) was more than 40 µg/mL; in [2], 20 ± 1 µg/mL (≈ 87.2 µM). Also, the minimal inhibitory concentration (MIC) in the test on Staphylococcus aureus is 128 µg/mL (≈ 558 µM); with Pseudomonas aeruginosa it was 128 µg/mL (≈ 558 µM); against Aspergillus niger, 256 µg/mL (≈ 1120 µM); in the test on Candida tropicalis, 256 µg/mL (≈ 1120 µM); in test [3] it was 64 to 256 µg/mL (≈ 279 to 1120 µM).

Regarding `COc1cc(/C=C/C(=O)c2ccno2)cc(OC)c1` [Compound 25], in test [1], the “DPPH assay IC50” value worked out at 9 ± 1 µg/mL. Also, the IC50 is more than 40 µg/mL in the test with Human Normal Cells (L02) and 12 ± 1 µg/mL (≈ 46.3 µM) in test [2]. Moreover, the MIC in the test on Staphylococcus aureus is 256 µg/mL (≈ 987 µM); in the test on Pseudomonas aeruginosa, 256 µg/mL (≈ 987 µM); with Aspergillus niger, 256 µg/mL (≈ 987 µM); in the test on Candida tropicalis, 512 µg/mL (≈ 1970 µM); in test [3], 64 to 256 µg/mL (≈ 247 to 987 µM).

On to `COc1ccc(/C=C/C(=O)c2ccno2)c(OC)c1OC` [Compound 26], for which the “DPPH assay IC50” value in test [1] is on record as 6 ± 1 µg/mL. Further, the IC50 with Human Normal Cells (L02) was more than 40 µg/mL; in [2], 10 ± 2 µg/mL (≈ 34.6 µM). The MIC was 64 µg/mL (≈ 221 µM) in the test with Staphylococcus aureus; 64 µg/mL (≈ 221 µM) in the test with Pseudomonas aeruginosa; 128 µg/mL (≈ 442 µM) against Aspergillus niger; 128 µg/mL (≈ 442 µM) in the test with Candida tropicalis; 64 to 256 µg/mL (≈ 221 to 885 µM) in test [3].

`COc1cc(OC)c(/C=C/C(=O)c2ccno2)c(OC)c1` [Compound 28]: the “DPPH assay IC50” value in test [1] is 5 ± 1 µg/mL. In addition, the IC50 in the test with Human Normal Cells (L02) was more than 40 µg/mL; in test [2] it was 30 ± 2 µg/mL (≈ 104 µM). Further, the MIC in [4] (setting [6]) was 2 µg/mL (≈ 6.91 µM); in the test with Staphylococcus aureus, 1 µg/mL (≈ 3.46 µM); in the test with Pseudomonas aeruginosa, 1 µg/mL (≈ 3.46 µM); in test [5] (setting [6]), 1 µg/mL (≈ 3.46 µM); in the test with Aspergillus niger it was 2 µg/mL (≈ 6.91 µM); in the test on Candida tropicalis, 2 µg/mL (≈ 6.91 µM). In addition, in [5] (setting [6]), the “antibacterial MIC” value stood at 1 µg/mL.

Regarding `COc1cc(/C=C/C(=O)c2ccno2)cc(OC)c1OC` [Compound 29], in test [1], the “DPPH assay IC50” value was 8 ± 2 µg/mL. The IC50 was more than 40 µg/mL in the test on Human Normal Cells (L02) and 8 ± 2 µg/mL (≈ 27.7 µM) in test [2]. For the same compound, the MIC was 64 µg/mL (≈ 221 µM) with Staphylococcus aureus; 128 µg/mL (≈ 442 µM) in the test on Pseudomonas aeruginosa; 128 µg/mL (≈ 442 µM) in the test on Aspergillus niger; 256 µg/mL (≈ 885 µM) in the test on Candida tropicalis; 64 to 256 µg/mL (≈ 221 to 885 µM) in test [3].

Turning to `COc1ccc(C2CC(c3ccno3)=NN2C(N)=O)cc1` (stereo not drawn) [Compound 32], the “DPPH assay IC50” value in test [1] turned out to be 44 ± 1 µg/mL. The 50% inhibitory concentration (IC50) in the test on Human Normal Cells (L02) is more than 40 µg/mL; in test [2], 28 ± 1 µg/mL (≈ 97.8 µM). Also, the minimal inhibitory concentration (MIC) in test [4] (setting [6]) was 4 µg/mL (≈ 14 µM); with Staphylococcus aureus, 16 µg/mL (≈ 55.9 µM); in the test with Pseudomonas aeruginosa, 16 µg/mL (≈ 55.9 µM); in the test on Aspergillus niger, 4 µg/mL (≈ 14 µM); with Candida tropicalis, 4 µg/mL (≈ 14 µM).

Turning to `COc1ccccc1C1CC(c2ccno2)=NN1C(N)=O` (stereo not drawn) [Compound 34], in [1], the “DPPH assay IC50” value turned out to be 38 ± 2 µg/mL. The figures for the IC50 (with Human Normal Cells (L02); in [2]) were more than 40 µg/mL and 32 ± 2 µg/mL (≈ 112 µM), respectively. For the same compound, the MIC is 8 µg/mL (≈ 27.9 µM) in [4] (setting [6]); 16 µg/mL (≈ 55.9 µM) in the test with Staphylococcus aureus; 16 µg/mL (≈ 55.9 µM) in the test with Pseudomonas aeruginosa; 8 µg/mL (≈ 27.9 µM) in the test with Aspergillus niger; 8 µg/mL (≈ 27.9 µM) in the test on Candida tropicalis.

As for `COc1cccc(OC)c1C1CC(c2ccno2)=NN1C(N)=O` (stereo not drawn) [Compound 38], in test [1], the “DPPH assay IC50” value was determined as 28 ± 1 µg/mL. For the same compound, the IC50 is more than 40 µg/mL in the test with Human Normal Cells (L02) and 20 ± 2 µg/mL (≈ 63.2 µM) in [2]. Moreover, the minimal inhibitory concentration (MIC) in [4] (setting [6]) was 2 µg/mL (≈ 6.32 µM); in the test on Staphylococcus aureus, 32 µg/mL (≈ 101 µM); in the test on Pseudomonas aeruginosa it was 16 µg/mL (≈ 50.6 µM); with Aspergillus niger it was 2 µg/mL (≈ 6.32 µM); in the test on Candida tropicalis, 2 µg/mL (≈ 6.32 µM).

Consider `COc1ccc(C2CC(c3ccno3)=NN2C(N)=O)c(OC)c1OC` (stereo not drawn) [Compound 41], for which, in test [1], the “DPPH assay IC50” value is recorded as 8 ± 1 µg/mL. For the same compound, the figures for the concentration for half-maximal inhibition (IC50) (with Human Normal Cells (L02); in [2]) were more than 40 µg/mL and 9 ± 1 µg/mL (≈ 26 µM), respectively. Besides, the minimum inhibitory concentration (MIC) in the test on Staphylococcus aureus worked out at 64 µg/mL (≈ 185 µM); in the test on Pseudomonas aeruginosa, 128 µg/mL (≈ 370 µM); in test [5] (setting [6]), 64 µg/mL (≈ 185 µM); in the test with Aspergillus niger, 64 µg/mL (≈ 185 µM); in the test on Candida tropicalis, 64 µg/mL (≈ 185 µM).

Consider `COc1cc(OC)c(C2CC(c3ccno3)=NN2C(N)=O)c(OC)c1` (stereo not drawn) [Compound 43], for which, in test [1], the “DPPH assay IC50” value is given as 6 ± 1 µg/mL. Further, the IC50 in the test on Human Normal Cells (L02) was more than 40 µg/mL; in test [2], 21 ± 2 µg/mL (≈ 60.6 µM). The MIC in test [4] (setting [6]) was determined as 2 µg/mL (≈ 5.77 µM); in the test with Staphylococcus aureus, 4 µg/mL (≈ 11.5 µM); in the test on Pseudomonas aeruginosa it was 4 µg/mL (≈ 11.5 µM); in [5] (setting [6]), 4 µg/mL (≈ 11.5 µM); against Aspergillus niger it was 2 µg/mL (≈ 5.77 µM); in the test with Candida tropicalis it was 2 µg/mL (≈ 5.77 µM). For the same compound, the “fold improvement in the antibacterial activity compared to compound 38” value in the test on Staphylococcus aureus (first of two values, S aureus inferred from Table 2) is reported as 8 fold; in the test on Pseudomonas aeruginosa (second of two values, P aeruginosa inferred from Table 2) it was 4 fold.

Consider `COc1ccc(C2CC(c3ccno3)=NN2C(N)=O)c(F)c1OC` (stereo not drawn) [Compound 45], for which the “DPPH assay IC50” value in test [1] was 55 ± 2 µg/mL. In addition, the IC50 is more than 40 µg/mL in the test on Human Normal Cells (L02) and 2 ± 1 µg/mL (≈ 5.98 µM) in test [2]. Moreover, the minimum inhibitory concentration (MIC) with Staphylococcus aureus came out at 8 µg/mL (≈ 23.9 µM); in the test with Pseudomonas aeruginosa, 8 µg/mL (≈ 23.9 µM); in test [5] (setting [6]), 8 µg/mL (≈ 23.9 µM); against Aspergillus niger it was 0.5 µg/mL (≈ 1.5 µM); with Candida tropicalis it was 1 µg/mL (≈ 2.99 µM). For the same compound, the “Anticancer potency MIC” value in [2] (given as MIC in text/Figure 3) came out at 2 µg/mL. Besides, in test [5] (45 (MIC 8) vs. 41 (MIC 64)), the “fold improvement of antibacterial activity vs. 41” value is 8 fold.

`COc1cc(Cl)c(C2CC(c3ccno3)=NN2C(N)=O)c(OC)c1` (stereo not drawn) [Compound 46]: in [1], the “DPPH assay IC50” value came out at 62 ± 1 µg/mL. Also, the values for the 50% inhibitory concentration (IC50) (in the test with Human Normal Cells (L02); in test [4]; in [2]) were more than 40 µg/mL, 2 ± 1 µg/mL (≈ 5.7 µM) and 12 ± 2 µg/mL (≈ 34.2 µM), respectively. Also, in test [4] (setting [6]), the “antifungal MIC” value is 0.5 µg/mL. Moreover, the MIC in the test with Staphylococcus aureus was found to be 8 µg/mL (≈ 22.8 µM); in the test with Pseudomonas aeruginosa, 8 µg/mL (≈ 22.8 µM); in test [5] (setting [6]) it was 8 µg/mL (≈ 22.8 µM); against Aspergillus niger it was 0.5 µg/mL (≈ 1.43 µM); with Candida tropicalis, 0.5 µg/mL (≈ 1.43 µM).
